The source of these data is ChEMBL document CHEMBL1138256 (Bioorg Med Chem Lett, 2007).

Calls of active or inactive are those of the source. The rule behind the calls is not given here.

In one assay the test system is Clostridium botulinum. Put plainly: Inhibition of Clostridium botulinum A recombinant light chain protease LC/A by at 100 uM by FRET assay.
In the case of `O=C(NO)c1cc2ccc(Cl)cc2[nH]1`, the result was inactive.

The subject of a further assay is Clostridium botulinum. Put plainly: (§1) Inhibition of Clostridium botulinum A recombinant light chain protease LC/A by FRET assay.
For the compound `O=C(NO)c1cc2ccc(Cl)cc2[nH]1`, the result was inactive.

System in another assay: not listed separately
The assay is described as §1.
For orientation: IC50 means the concentration needed to halve the response being measured. With `Cc1cc(Cl)ccc1/C=C/C(=O)NO`, the IC50 worked out at 0.8 µM.

Turning to `O=C(/C=C/c1ccc(Cl)cc1[N+](=O)[O-])NO`, the IC50 was 2 µM.

Consider `CS(=O)(=O)c1cc(Cl)ccc1/C=C/C(=O)NO`, for which the IC50 was 17 µM.

For the compound `COc1cc(Cl)ccc1/C=C/C(=O)NO`, the half-maximal inhibitory concentration (IC50) was determined as 9 µM.

As for `O=C(/C=C/c1ccc(Cl)cc1Cl)NO` [CINNAMIC ACID HYDROXAMATE], the half-inhibitory concentration (IC50) worked out at 0.9 µM.

`O=C(/C=C/c1ccc(Cl)cc1Br)NO`: the 50% inhibitory concentration (IC50) stood at 0.7 µM.

With `O=C(NO)c1cc2ccc(Cl)cc2s1`, the IC50 was found to be 45 µM.

For the compound `N#Cc1cc(Cl)ccc1/C=C/C(=O)NO`, the concentration for half-maximal inhibition (IC50) worked out at 12 µM.

On to `O=C(NO)c1ccc2cc(Br)ccc2c1`, for which the 50% inhibitory concentration (IC50) turned out to be 71 µM.

`Nc1cc(Cl)ccc1/C=C/C(=O)NO`: the IC50 is 25 µM.

For the compound `O=C(/C=C/c1ccc(Cl)cc1F)NO`, the half-inhibitory concentration (IC50) was 4.4 µM.

For the compound `O=C(NO)C1=Cc2ccc(Cl)cc2C1`, the half-maximal inhibitory concentration (IC50) turned out to be 41 µM.

`O=C(NO)c1ccc2cc(Cl)ccc2c1`: the concentration for half-maximal inhibition (IC50) was determined as 21 µM.

For the compound `Cn1c(C(=O)NO)cc2ccc(Cl)cc21`, the IC50 was determined as 38 µM.

For the compound `O=C(/C=C/c1ccc(Cl)cc1O)NO`, the concentration for half-maximal inhibition (IC50) came to 13 µM.

Turning to `O=C(/C=C/c1ccc(Cl)cc1C(F)(F)F)NO`, the IC50 stood at 0.6 µM.

Take `CSc1cc(Cl)ccc1/C=C/C(=O)NO`: the IC50 is 5.1 µM.
